Test results taken from patent US8846698B2, “Pyrrolo[2,3-d]pyrimidine tropomysin-related kinase inhibitors” (Pfizer Limited, priority 2011, dated 2014).

Molecular target: TRKA (Homo sapiens (Human), UniProt P04629)
Experiment: Isolated TRK enzyme assay (HTRF KinEASE-TK), TRKA
Type: biochemical
Conditions: read-out: Trka enzyme (IC50)

TRKA, sequence (P04629 441-796): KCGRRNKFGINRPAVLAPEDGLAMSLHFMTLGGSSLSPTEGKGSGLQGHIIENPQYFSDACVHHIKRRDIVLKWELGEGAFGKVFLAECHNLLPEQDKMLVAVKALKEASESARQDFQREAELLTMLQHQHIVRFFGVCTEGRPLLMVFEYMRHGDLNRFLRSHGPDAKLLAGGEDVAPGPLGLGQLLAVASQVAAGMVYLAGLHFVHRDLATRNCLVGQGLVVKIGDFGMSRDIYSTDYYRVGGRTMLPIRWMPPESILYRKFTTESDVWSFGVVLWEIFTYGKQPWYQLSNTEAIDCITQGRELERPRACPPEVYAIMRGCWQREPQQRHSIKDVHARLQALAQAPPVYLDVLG

Row | SMILES | IC50 [nM]
1 | Cn1cc(CC(=O)Nc2cncc(C(=O)c3cn(C(C)(C)C)c4ncncc34)c2)cn1 [Example 202, N-{5-[(7-tert-butyl-7H-pyrrolo[2,3-d]pyrimidin-5-yl)carbonyl]pyridin-3-yl}-2-(1-methyl-1H-pyrazol-4-yl)acetamide] | 412
2 | CC(C)n1cc(C(=O)c2cncc(NC(=O)c3ccccn3)c2)c2cncnc21 [Example 429, Pyridine-2-carboxylic acid [5-(7-isopropyl-7H-pyrrolo[2,3-d]pyrimidine-5-carbonyl)-pyridin-3-yl]-amide] | 2740
3 | CC(C)n1cc(C(=O)c2cncc(NC(=O)c3ccc(C4(C(F)(F)F)N=N4)cc3)c2)c2cncnc21 [Example 291, N-{5-[(7-isopropyl-7H-pyrrolo[2,3-d]pyrimidin-5-yl)carbonyl]pyridin-3-yl}-4-[3-(trifluoromethyl)-3H-diaziren-3-yl]benzamide] | 3230
4 | CC(C)n1cc(C(=O)c2cncc(NC(=O)Cc3cncc(Br)c3)c2)c2cncnc21 [Example 150, 2-(5-bromopyridin-3-yl)-N-{5-[(7-isopropyl-7H-pyrrolo[2,3-d]pyrimidin-5-yl)carbonyl]pyridin-3-yl}acetamide] | 51
5 | N#Cc1ccc(CC(=O)Nc2cncc(C(=O)c3cn(C4(CO)CC4)c4ncncc34)c2)cc1 [Example 522, 2-(4-Cyano-phenyl)-N-{5-[7-(1-hydroxymethyl-cyclopropyl)-7H-pyrrolo[2,3-d]pyrimidine-5-carbonyl]-pyridin-3-yl}-acetamide] | 43.7
6 | O=C(Cn1ccc(C(F)(F)F)n1)Nc1cncc(C(=O)c2cn(C(CO)CO)c3ncncc23)c1 [Example 283, N-[5-({7-[2-hydroxy-1-(hydroxymethyl)ethyl]-7H-pyrrolo[2,3-d]pyrimidin-5-yl}carbonyl)pyridin-3-yl]-2-[3-(trifluoromethyl)-1H-pyrazol-1-yl]acetamide] | 297
7 | O=C(CN1Cc2ccccc2C1=O)Nc1cncc(C(=O)c2cn(C3COC3)c3ncncc23)c1 [Example 224, N-{5-[(7-oxetan-3-yl-7H-pyrrolo[2,3-d]pyrimidin-5-yl)carbonyl]pyridin-3-yl}-2-(1-oxo-1,3-dihydro-2H-isoindol-2-yl)acetamide] | 3100
8 | CCOc1ncc(C(=O)c2cn(C(C)C)c3ncncc23)cc1NC(=O)Cn1nc(C(F)(F)F)cc1C [Example 519, N-[2-Ethoxy-5-(7-isopropyl-7H-pyrrolo[2,3-d]pyrimidine-5-carbonyl)-pyridin-3-yl]-2-(5-methyl-3-trifluoromethyl-pyrazol-1-yl)-acetamide] | 47.9
9 | Cc1ccc2[nH]c(C)c(CC(=O)Nc3cncc(C(=O)c4cn(C(C)C)c5ncncc45)c3)c2c1 [Example 153, 2-(2,5-dimethyl-1H-indol-3-yl)-N-{5-[(7-isopropyl-7H-pyrrolo[2,3-d]pyrimidin-5-yl)carbonyl]pyridin-3-yl}acetamide] | 71.5
10 | Cn1cc(C(=O)c2cncc(NC(=O)Cc3cc(F)cc(F)c3F)c2)c2cncnc21 [Example 177, N-{5-[(7-methyl-7H-pyrrolo[2,3-d]pyrimidin-5-yl)carbonyl]pyridin-3-yl}-2-(2,3,5-trifluorophenyl)acetamide] | 3100
11 | Cc1ccccc1CCC(=O)Nc1cncc(C(=O)c2cn(C)c3ncncc23)c1 [Example 326, 3-(2-methylphenyl)-N-{5-[(7-methyl-7H-pyrrolo[2,3-d]pyrimidin-5-yl)carbonyl]pyridin-3-yl}propanamide] | 2980
12 | Cn1cc(C(=O)c2cncc(NC(=O)COc3ccccc3OC(F)(F)F)c2)c2cncnc21 [Example 325, N-{5-[(7-methyl-7H-pyrrolo[2,3-d]pyrimidin-5-yl)carbonyl]pyridin-3-yl}-2-[2-(trifluoromethoxy)phenoxy]acetamide] | 111
13 | Cn1cc(C(=O)c2cncc(NC(=O)Cc3cccc(C(F)(F)F)c3)c2)c2cncnc21 [Example 194, N-{5-[(7-methyl-7H-pyrrolo[2,3-d]pyrimidin-5-yl)carbonyl]pyridin-3-yl}-2-[3-(trifluoromethyl)phenyl]acetamide] | 101
14 | CC(C)(CO)n1cc(C(=O)c2cncc(NC(=O)Cc3nc4ccccc4[nH]3)c2)c2cnc(N)nc21 [Example 558, N-{5-[2-Amino-7-(2-hydroxy-1,1-dimethyl-ethyl)-7H-pyrrolo[2,3-d]pyrimidine-5-carbonyl]-pyridin-3-yl}-2-(1H-benzoimidazol-2-yl)-acetamide] | 5.56
15 | COc1ccnc(C(=O)Nc2cncc(C(=O)c3cn(C(C)C)c4ncncc34)c2)c1 [Example 409, 4-Methoxy-pyridine-2-carboxylic acid [5-(7-isopropyl-7H-pyrrolo[2,3-d]pyrimidine-5-carbonyl)-pyridin-3-yl]-amide] | 70.4
16 | Cc1ccc2ccc(CC(=O)Nc3cncc(C(=O)c4cn(C(CO)CO)c5ncncc45)c3)cc2n1 [Example 275, N-[5-({7-[2-hydroxy-1-(hydroxymethyl)ethyl]-7H-pyrrolo[2,3-d]pyrimidin-5-yl}carbonyl)pyridin-3-yl]-2-(2-methylquinolin-7-yl)acetamide] | 5100

Row | SMILES | IC50 [nM]
17 | O=C(Cc1cccc(Cl)c1)Nc1cncc(C(=O)c2cn(C3COC3)c3ncncc23)c1 [Example 220, 2-(3-chlorophenyl)-N-{5-[(7-oxetan-3-yl-7H-pyrrolo[2,3-d]pyrimidin-5-yl)carbonyl]pyridin-3-yl}acetamide] | 462
18 | CC(C)(CO)n1cc(C(=O)c2cncc(NC(=O)Cc3ccc(C#N)cc3)c2)c2cnc(N)nc21 [Example 259, N-(5-{[2-amino-7-(2-hydroxy-1,1-dimethylethyl)-7H-pyrrolo[2,3-d]pyrimidin-5-yl]carbonyl}pyridin-3-yl)-2-(4-cyanophenyl)acetamide] | 8.62
19 | CC(C)n1cc(C(=O)c2cncc(NC(=O)Cc3cn4cc(Cl)sc4n3)c2)c2cncnc21 [Example 371, 2-(2-Chloro-imidazo[2,1-b]thiazol-6-yl)-N-[5-(7-isopropyl-7H-pyrrolo[2,3-d]pyrimidine-5-carbonyl)-pyridin-3-yl]-acetamide] | 97
20 | C[C@@H](CO)n1cc(C(=O)c2cncc(NC(=O)Cc3ccc(OC(F)(F)F)cc3)c2)c2cncnc21 [Example 534, N-{5-[7-((S)-2-Hydroxy-1-methyl-ethyl)-7H-pyrrolo[2,3-d]pyrimidine-5-carbonyl]-pyridin-3-yl}-2-(4-trifluoromethoxy-phenyl)-acetamide] | 20.3
21 | Cn1cc(C(=O)c2cncc(NC(=O)CCc3cccnc3)c2)c2cncnc21 [Example 322, N-{5-[(7-methyl-7H-pyrrolo[2,3-d]pyrimidin-5-yl)carbonyl]pyridin-3-yl}-3-(pyridin-3-yl)propanamide] | 9800
22 | CC(C)n1cc(C(=O)c2cncc(NC(=O)c3ncncc3Br)c2)c2cncnc21 [Example 472, 5-Bromo-pyrimidine-4-carboxylic acid [5-(7-isopropyl-7H-pyrrolo[2,3-d]pyrimidine-5-carbonyl)-pyridin-3-yl]-amide] | 1720
23 | CCc1cc(C(=O)Nc2cncc(C(=O)c3cn(C(C)C)c4ncncc34)c2)no1 [Example 396, 5-Ethyl-isoxazole-3-carboxylic acid[5-(7-isopropyl-7H-pyrrolo[2,3-d]pyrimidine-5-carbonyl)-pyridin-3-yl]-amide] | 177
24 | CC(C)n1cc(C(=O)c2cncc(NC(=O)c3nn(C)c4ccccc34)c2)c2cncnc21 [Example 382, 1-Methyl-1H-indazole-3-carboxylic acid [5-(7-isopropyl-7H-pyrrolo[2,3-d]pyrimidine-5-carbonyl)-pyridin-3-yl]-amide] | 45.7
25 | CC(C)n1cc(C(=O)c2cncc(NC(=O)c3cc4ccccn4n3)c2)c2cncnc21 [Example 501, Pyrazolo[1,5-a]pyridine-2-carboxylic acid [5-(7-isopropyl-7H-pyrrolo[2,3-d]pyrimidine-5-carbonyl)-pyridin-3-yl]-amide] | 201
26 | O=C(Cc1ccc(Cl)cn1)Nc1cncc(C(=O)c2cn(C3(CO)COC3)c3ncncc23)c1 [Example 301, 2-(5-chloropyridin-2-yl)-N-[5-({7-[3-(hydroxymethyl)oxetan-3-yl]-7H-pyrrolo[2,3-d]pyrimidin-5-yl}carbonyl)pyridin-3-yl]acetamide] | 428
27 | CC(C)n1cc(C(=O)c2cncc(NC(=O)c3cc4cnccc4o3)c2)c2cncnc21 [Example 453, Furo[3,2-c]pyridine-2-carboxylic acid [5-(7-isopropyl-7H-pyrrolo[2,3-d]pyrimidine-5-carbonyl)-pyridin-3-yl]-amide] | 634
28 | COCc1cc(C(=O)Nc2cncc(C(=O)c3cn(C(C)C)c4ncncc34)c2)nn1C [Example 481, 5-Methoxymethyl-1-methyl-1H-pyrazole-3-carboxylic acid [5-(7-isopropyl-7H-pyrrolo[2,3-d]pyrimidine-5-carbonyl)-pyridin-3-yl]-amide] | 313
29 | CC(C)n1cc(C(=O)c2cncc(NC(=O)Cn3cnc(-c4ccc(F)cc4)c3)c2)c2cncnc21 [Example 365, 2-[4-(4-Fluoro-phenyl)-imidazol-1-yl]-N-[5-(7-isopropyl-7H-pyrrolo[2,3-d]pyrimidine-5-carbonyl)-pyridin-3-yl]-acetamide] | 2040
30 | O=C(Cc1ccc2cccnc2c1)Nc1cncc(C(=O)c2cn(C3COC3)c3ncncc23)c1 [Example 222, N-{5-[(7-oxetan-3-yl-7H-pyrrolo[2,3-d]pyrimidin-5-yl)carbonyl]pyridin-3-yl}-2-quinolin-7-ylacetamide] | 692
31 | Cc1cc(C(F)F)n2nc(C(=O)Nc3cncc(C(=O)c4cn(C(C)C)c5ncncc45)c3)nc2n1 [Example 356, 7-Difluoromethyl-5-methyl-[1,2,4]triazolo[1,5-a]pyrimidine-2-carboxylic acid [5-(7-isopropyl-7H-pyrrolo[2,3-d]pyrimidine-5-carbonyl)-pyridin-3-yl]-amide] | 56.3
32 | CC(C)n1cc(C(=O)c2cncc(NC(=O)c3cnc4[nH]ncc4c3)c2)c2cncnc21 [Example 486, 1H-Pyrazolo[3,4-b]pyridine-5-carboxylic acid [5-(7-isopropyl-7H-pyrrolo[2,3-d]pyrimidine-5-carbonyl)-pyridin-3-yl]-amide] | 805
